The assay deals with 50 kinases. In words: Profiling against 50 kinases, radioactive filter-binding assay. The assay is classed as biochemical. The conditions noted are these: duplicate (Supplementary Figure 1).

Regarding `NCCCNc1nc(Nc2cccc(NC(=O)N3CCCC3)c2)ncc1I` [Compound 3, N-(3-((4-((3-aminopropyl)amino)-5-iodopyrimidin-2-yl)amino)phenyl)pyrrolidine-1-carboxamide], the “selectivity throughout the kinome” value is recorded as “good selectivity throughout the kinome”.

The values are drawn from publication PMC4864979 (Bioorganic & medicinal chemistry, 2015).
